The record followed here is publication PMC12491641 (Nature Communications, 2025).

Type in all cases: binding
Assay [1] has as its target T1, AtD14 (DWARF14) (Arabidopsis thaliana, UniProt Q9SQR3).
T1 sequence (Q9SQR3 2-266): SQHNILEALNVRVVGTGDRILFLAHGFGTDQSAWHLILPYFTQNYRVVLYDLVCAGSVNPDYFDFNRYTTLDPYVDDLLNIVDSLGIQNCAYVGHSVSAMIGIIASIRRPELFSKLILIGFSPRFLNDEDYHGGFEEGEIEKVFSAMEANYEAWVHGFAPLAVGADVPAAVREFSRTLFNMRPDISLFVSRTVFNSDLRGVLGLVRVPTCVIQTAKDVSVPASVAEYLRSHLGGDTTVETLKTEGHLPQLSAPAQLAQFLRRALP
Kind of assay: intrinsic tryptophan fluorescence Kd.

A further assay concerns the target T2, OsD14 (Oryza sativa, UniProt Q10QA5).
T2 sequence (Q10QA5 1-318): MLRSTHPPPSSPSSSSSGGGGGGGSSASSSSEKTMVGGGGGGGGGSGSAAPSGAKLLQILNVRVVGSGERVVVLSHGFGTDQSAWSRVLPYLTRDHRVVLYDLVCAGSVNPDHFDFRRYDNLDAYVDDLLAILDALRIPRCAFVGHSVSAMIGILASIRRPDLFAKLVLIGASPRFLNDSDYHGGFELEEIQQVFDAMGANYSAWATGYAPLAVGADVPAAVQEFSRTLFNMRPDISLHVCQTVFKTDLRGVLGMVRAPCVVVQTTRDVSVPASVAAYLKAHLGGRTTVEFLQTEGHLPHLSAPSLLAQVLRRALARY
Kind of assay: nanoDSF Tm increase. On the technique in general: Differential scanning fluorimetry follows unfolding on heating by fluorescence.

Assay [2] deals with T1, AtD14 (DWARF14). Kind of assay: co-crystal structure.

Consider `CC1=CC(O/C=C2/C(=O)OC3c4ccccc4CC23)OC1=O` (racemic) [(±)-GR24], for which, at AtD14 (DWARF14) [1], binding was put at a Kd of 990 nM.

On to `CC(=O)/C=C/C=C(C)/C=C/C1=C(C)CC(O)CC1(C)C` (stereo in doubt) [zaxinone], for which, at OsD14, the “nanoDSF Tm increase; tryptophan fluorescence” value is “tryptophan fluorescence assays confirmed the direct interaction between OsD14 and zaxinone”. At AtD14 (DWARF14) [2], this compound yielded a Kd of 1800 nM.

By Kd is commonly meant the equilibrium constant for the complex coming apart. Read a low Kd as a tighter complex.
